Results published in PMC8551653, “Bisphenol A derivatives act as novel coactivator-binding inhibitors for estrogen receptor β” (The Journal of Biological Chemistry, 2021).
Entries after “also recorded” stand apart in the source; their conditions may differ.

Legend:
ERβ(W335A) [1] = target: T1, ERβ(W335A) (Homo sapiens, UniProt Q92731, W335A); experiment: Competitive binding assay for ERβ(W335A); parameters: made in house; host or cells: Escherichia coli BL21α (described for the wild-type LBD); settings: for shape of competitive binding curve, ERβ(W335A): Fig. 4B
Protocol: (§1) After successive incubation with 100 μl of 0.4% dextran-coated charcoal (DCC) (Sigma-Aldrich) in PBS (pH 7.4) on ice for 10 min, free radioligands bound to DCC were removed using a vacuum filtration system with a 96-well filtration plate (MultiScreenHTS HV, […], Merck KGaA) for the bound/free separation. The radioactivity of each eluent was measured using a liquid scintillation counter (LS6500; Beckman Coulter) and Clear-sol I (Nacalai Tesque Inc). […] Each compound was dissolved in dimethyl sulfoxide to prepare a 1.0 mM stock solution and further diluted to prepare serial dilutions (10^−12 M to 10^−5 M) in the binding buffer. […] Bound/free separation was performed as described above, and the radioactivity was determined using a MicroBeta microplate counter (PerkinElmer Inc). The IC50 value of each test compound was calculated from the dose–response curves generated via nonlinear regression analysis using Prism software (GraphPad Software Inc).
Target sequence in this assay (Q92731 263-530 W335A): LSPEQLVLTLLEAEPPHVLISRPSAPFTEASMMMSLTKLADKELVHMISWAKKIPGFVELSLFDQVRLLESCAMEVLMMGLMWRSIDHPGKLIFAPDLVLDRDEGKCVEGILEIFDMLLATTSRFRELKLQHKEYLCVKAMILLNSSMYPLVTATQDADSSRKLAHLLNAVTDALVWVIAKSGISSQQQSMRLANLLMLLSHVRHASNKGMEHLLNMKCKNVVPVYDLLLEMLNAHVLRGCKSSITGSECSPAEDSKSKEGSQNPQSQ

ERβ [2] = target: T2, ERβ (Homo sapiens, UniProt Q92731); experiment: Radioligand competitive binding assay with [3H]E2 for ERβ (GST-ERβ-LBD); parameters: made in house; host or cells: Escherichia coli BL21α
Protocol: Human ERβ cDNA was obtained from OriGene Technologies. The cDNA of ERβ-LBD was amplified using PCR and subcloned into a pGEX-6p-1 expression vector. The expression of GST-fused ERβ-LBD was induced by 1 mM IPTG in Escherichia coli BL21α at 16 °C for overnight. The resulting crude protein was affinity-purified using Glutathione-Sepharose 4B (Cytiva), followed by gel filtration using a Sephadex G-10 column (Cytiva).
Target sequence in this assay (Q92731 263-530): as the sequence (Q92731 263-530 W335A) above, with A73W counted along it

ERβ [3] = target: T2, ERβ; experiment: Luciferase reporter gene assay in HeLa cells, agonistic activity; assay type: cell-based; parameters: expressed in transfected cells; host or cells: HeLa; settings: HeLa cells; for ERβ agonist activity (in words): WT ERβ
Protocol: (§2) HeLa cells were maintained in Eagle's minimum essential medium (Nissui Pharmaceutical Co, Ltd) supplemented with DCC-treated fetal bovine serum (10%, v/v) at 37 °C under 5% CO2. […] After a 24-h incubation, luciferase activity was measured using the ONE-Glo Luciferase Assay System (Promega Co) on an EnSpire multimode plate reader (PerkinElmer, Inc).
Target sequence in this assay (Q92731 whole entry, the tested form may be a part): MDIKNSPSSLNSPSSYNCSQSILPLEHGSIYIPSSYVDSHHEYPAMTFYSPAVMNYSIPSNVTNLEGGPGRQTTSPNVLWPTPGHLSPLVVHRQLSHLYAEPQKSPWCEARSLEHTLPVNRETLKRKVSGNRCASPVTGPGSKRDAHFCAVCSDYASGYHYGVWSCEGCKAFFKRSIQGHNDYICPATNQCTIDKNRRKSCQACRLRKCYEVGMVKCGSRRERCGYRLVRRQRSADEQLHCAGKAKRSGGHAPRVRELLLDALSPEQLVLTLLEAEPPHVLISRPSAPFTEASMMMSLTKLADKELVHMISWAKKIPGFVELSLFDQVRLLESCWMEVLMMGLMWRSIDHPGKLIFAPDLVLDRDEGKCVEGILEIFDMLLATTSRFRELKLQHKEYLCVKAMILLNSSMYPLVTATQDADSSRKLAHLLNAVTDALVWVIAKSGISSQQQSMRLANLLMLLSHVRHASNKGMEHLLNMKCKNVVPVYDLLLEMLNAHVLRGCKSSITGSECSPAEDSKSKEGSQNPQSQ

ERα = system: ERα; parameters: method as in PMID 31289329; settings: competitive binding, [3H] 17β-estradiol as radioligand; mean ± SD; read-out: Binding affinity (IC50, nM) ERα; cited from earlier work
ERβ [4] = target: T2, ERβ; experiment: Luciferase reporter gene assay in HeLa cells, antagonistic activity against 10 nM E2; assay type: cell-based; parameters: expressed in transfected cells; host or cells: HeLa; settings: for ERβ antagonist activity (in words): against 10 nM E2-induced ERβ activation, 100 nM, 1 μM, 10 μM
Protocol: as §2
Target sequence in this assay (Q92731 whole entry, the tested form may be a part): as above

ERβ [5] = target: T2, ERβ; experiment: Competitive binding assay with [3H]4OHT for WT ERβ; parameters: made in house; host or cells: Escherichia coli BL21α
Protocol: as §1
Target sequence in this assay (Q92731 263-530): as the sequence (Q92731 263-530 W335A) above, with A73W counted along it

ERβ(W335A) [6] = target: T1, ERβ(W335A); experiment: Luciferase reporter gene assay in HeLa cells, ERβ(W335A); assay type: cell-based; parameters: expressed in transfected cells; host or cells: HeLa
Protocol: HeLa cells were maintained in Eagle's minimum essential medium (Nissui Pharmaceutical Co, Ltd) supplemented with DCC-treated fetal bovine serum (10%, v/v) at 37 °C under 5% CO2. […] After incubation for 24 h, cells were harvested and seeded onto 96-well plates at 5 × 10^4 cells/well, and then treated with a series of the test compounds (10^−12 M to 10^−5 M, final concentration) diluted with 1% bovine serum albumin/PBS (v/v). After a 24-h incubation, luciferase activity was measured using the ONE-Glo Luciferase Assay System (Promega Co) on an EnSpire multimode plate reader (PerkinElmer, Inc).
Target sequence in this assay (Q92731 whole entry W335A, the tested form may be a part): as the sequence (Q92731 whole entry, the tested form may be a part) above, with W335A counted along it

[7] = target: T3, GST-fused ligand-binding domain of human estrogen receptor β (amino acids 263–530) (human, UniProt Q92731 263-530); experiment: SPR; Biacore T100; GST-ERβ-LBD incubated with 10 μM BPC for 1 h, captured on anti-GST antibody on a CM5 chip at 25 °C; SRC1 peptide injected with BPC; HBS-EP+ buffer; settings: both partners purified
T3 construct: cDNA from OriGene Technologies; Subcloned into pGEX-6p-1; Captured on the chip through an anti-GST antibody; Incubated beforehand with 10 μM E2 or 10 μM BPC (small molecules) in two of the three SPR conditions; also called GST-ERβ-LBD; ERβ-LBD; source: E. coli BL21α, purified (Glutathione-Sepharose 4B, gel filtration on Sephadex G-10)
T3 sequence (Q92731 263-530): as the sequence (Q92731 263-530 W335A) above, with A73W counted along it

[8] = target: T3, GST-fused ligand-binding domain of …; experiment: SPR; Biacore T100; GST-ERβ-LBD without E2, captured on anti-GST antibody on a CM5 chip; SRC1 peptide injected; HBS-EP+ buffer; settings: both partners purified
[9] = target: T3, GST-fused ligand-binding domain of …; experiment: SPR; Biacore T100; GST-ERβ-LBD incubated with 10 μM E2 for 1 h, captured on anti-GST antibody on a CM5 chip at 25 °C; SRC1 peptide injected with E2; HBS-EP+ buffer (0.01 M Hepes pH 7.4, 0.15 M NaCl, 3 mM EDTA, 0.05% Surfactant P20); settings: both partners purified

Molecule | IC50 (ERβ(W335A) [1]) [µM] | shape of competitive binding curve, ERβ(W335A) (ERβ(W335A) [1]) | IC50 (ERβ [2]) [µM] | maximum fold induction (agonistic activity on ERβ) (ERβ [3]; ERE luciferase reporter, tested up to 10 µM) | ERβ agonist activity (in words) (ERβ [3]) | IC50 (ERα) [nM] | transcriptional activity (%) at most effective inhibitory concentration, ratio to that of 10 nM E2 (ERβ [4]; HeLa cells, in the presence of 10 nM E2, 0.1, 1, 10 µM tested) [%] | ERβ antagonist activity (in words) (ERβ [4]) | IC50 (ERβ [5]) [µM] | shape of competitive binding curve, WT ERβ (ERβ [5]; [3H]4OHT radioligand) | IC50 (ERβ [5]; read-out: IC50, biphasic curve, low-affinity site, [3H]4OHT radioligand, WT ERβ) [µM] | transcriptional activity on ERβ(W335A) (in words) (ERβ(W335A) [6]) | affinity for ERβ, times weaker than that of E2 (ERβ [2]; relative to E2) [times] | ERβ agonist activity (in words) (ERβ [3]; listed as BPA) | Kd [7] [µM] | Kd [8] [µM] | Kd [9] [µM]
Oc1ccc(C(=C(Cl)Cl)c2ccc(O)cc2)cc1 [Compound 1, 4,4'-(2,2-dichloroethene-1,1-diyl)diphenol] | 0.691 ± 0.029 | biphasic binding of BPC and BPAF was lost | 0.00299 ± 0.001 | 2.39 | weak transcriptional activity | 2.81 ± 0.61 | 6.0 | strongest antagonistic activity | 0.0181 | biphasic dose–response curve | 2.28 | – | – | – | – | – | –
CC(C)(c1ccc(O)cc1)c1ccc(O)cc1 [Compound 19, 4,4'-(propane-2,2-diyl)diphenol] | – | typical sigmoidal competitive dose–response curve | – | – | – | – | – | did not elicit antagonistic activity | – | sigmoidal curve | – | lost | 400 | full agonist activity; also recorded: strongest ERβ agonistic activity; also recorded: strong transcriptional activity | – | – | –
ERHKILHRLLQEG (source: synthetic peptide (ABI 433A, solid phase, Fmoc chemistry)) [SRC1 peptide (amino acids 685–697) derived from human nuclear receptor coactivator 1] | – | – | – | – | – | – | – | – | – | – | – | – | – | – | 16.4 | 9.1 | 3.3
